This assay has as its target T1, KCC2 (Homo sapiens, UniProt Q9H2X9).
T1 construct: expressed in transfected cells; host or cells: HEK293 cells electroporated (Maxcyte STX) with the pcDNA3.1 KCC2 plasmid
T1 sequence (Q9H2X9 1-1139): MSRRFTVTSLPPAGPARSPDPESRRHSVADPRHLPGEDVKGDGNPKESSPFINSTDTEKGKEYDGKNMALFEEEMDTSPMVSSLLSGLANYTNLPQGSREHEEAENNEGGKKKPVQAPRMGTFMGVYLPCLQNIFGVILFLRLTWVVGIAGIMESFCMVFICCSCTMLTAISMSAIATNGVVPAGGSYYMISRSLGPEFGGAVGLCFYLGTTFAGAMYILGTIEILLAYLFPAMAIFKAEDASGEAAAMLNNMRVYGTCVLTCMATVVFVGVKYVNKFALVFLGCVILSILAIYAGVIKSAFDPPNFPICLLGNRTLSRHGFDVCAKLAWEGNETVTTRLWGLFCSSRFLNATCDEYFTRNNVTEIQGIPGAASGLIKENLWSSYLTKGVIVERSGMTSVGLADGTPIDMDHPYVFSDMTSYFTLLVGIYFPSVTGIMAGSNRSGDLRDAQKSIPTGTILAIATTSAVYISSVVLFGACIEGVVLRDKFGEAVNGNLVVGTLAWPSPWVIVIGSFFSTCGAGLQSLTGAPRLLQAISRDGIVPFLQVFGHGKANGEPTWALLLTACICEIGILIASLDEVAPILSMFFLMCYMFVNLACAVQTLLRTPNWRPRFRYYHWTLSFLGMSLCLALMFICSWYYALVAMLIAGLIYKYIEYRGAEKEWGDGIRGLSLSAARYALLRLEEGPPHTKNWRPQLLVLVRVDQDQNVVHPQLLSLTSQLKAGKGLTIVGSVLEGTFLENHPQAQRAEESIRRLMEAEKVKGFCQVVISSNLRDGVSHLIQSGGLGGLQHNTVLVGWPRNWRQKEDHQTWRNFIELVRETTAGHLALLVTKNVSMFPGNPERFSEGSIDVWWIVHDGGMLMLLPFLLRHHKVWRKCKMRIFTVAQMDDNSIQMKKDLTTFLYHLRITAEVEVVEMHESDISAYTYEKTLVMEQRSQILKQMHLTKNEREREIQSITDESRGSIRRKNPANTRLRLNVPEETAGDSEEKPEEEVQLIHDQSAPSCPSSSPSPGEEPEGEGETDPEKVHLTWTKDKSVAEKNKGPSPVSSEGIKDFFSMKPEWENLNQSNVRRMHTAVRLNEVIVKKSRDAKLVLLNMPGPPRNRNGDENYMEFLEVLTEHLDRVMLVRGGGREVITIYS
Nature of the assay: KCC2 thallium transport FLIPR-based assay (Tl+ influx in HEK293 cells expressing KCC2). The assay is classed as cell-based. As to conditions: 90 min compound incubation at RT, thallium flux at 120 s used to determine EC50. How it is done:
A thallium transport FLIPR-based assay was used to measure the ability of compounds to activate KCC2. KCC2 activity is assessed by measuring KCC2-dependent Tl^+ influx in a KCC2-expressing cell. The assay protocol was based on those described by Delpire et al (Proc Natl Acad Sci USA. 2009 Mar. 31; 106(13): 5383-5388) and Zhang et al (Journal of Biomolecular Screening 15(2): 2010).
KCC2 was synthesised and codon optimised by GeneArt based on the Uniprot sequence Q9H2X9. The final sequence was subcloned into pcDNA3.1.
HEK293 cells were grown in 10 layer cell stacks at 37° C., 5% CO2, in DMEM, 10% fetal calf serum and 2 mM Glutamine. The cells were detached by removing the media and washing the cell stack with 100 ml of PBS. The PBS was removed and 100 ml of 1× TrypLE was added and the cell stack returned to 37° C. for 5 min. The detached cells were then counted in a Vi Cell counter and spun for 10 min at 1250 rpm in a Sorval Legend centrifuge. The cells were diluted down in Maxcyte electroporation buffer at 4× the final concentration and spun as before. The cell pellet was resuspended at 1×10^8/cells per ml and electroporated in a Maxcyte Cl 2.2 bag on a Maxcyte STX machine via the HEK293 programme with 200 ug/ml of plasmid DNA. The cells were then allowed to recover for 30 min before adding to 500 ml of PBS and then counted again on the Vi Cell. The cells were then frozen down in planer controlled rate freeze in 90% complete media, 10% DMSO.
All reagents were dispensed using a Mulitdrop Combi unless stated otherwise. All FluXOR Invitrogen propriety buffer compositions are mentioned in tables below.
HEK293 KCC2 cells were harvested at a density of 3.33×10^5 cells/mL in complete media (DMEM, Sigma, D6546, 10% fetal calf serum and 1% Glutamax) and 30 μL per well seeded into 384-well PDL coated black-clear plates (Corning, 354663). Leave cells at RT for 20 mins to settle before incubating for 48 h at 37° C., 5% CO2. Following incubation, perform three wash steps in HBSS (Sigma, H6648) using a Biotek cell washer with the final aspiration leaving 20 μL HBSS residual volume in each well. A further 20 μL per well of thallium loading dye is then added (1 h, RT, protect from light). 5 μL of test compounds (100 μM top concentration, 1:2 dilutions, 12 point curve) were added using the FLIPR TETRA and incubated at RT for 90 min in the dark. Following compound incubation, the thallium flux response is read on FLIPR TETRA (ex. 515-575 nm) which is initiated by FLIRR TETRA dispensing 5 μL stimulus buffer into each well. Recordings are measured every 1 second for 120 seconds. Thallium flux at 120 s used to determine EC50.
Compound buffer: Assay buffer with 1 μL of bumetanide per 10 ml.
As usually defined, the EC50 is the concentration needed to bring the measured effect to its halfway point. A low value points to a more potent agent. With `C1=C(c2nc(Nc3ccc(C4CCCCC4)cc3)c3cccnc3n2)CCOC1` [Example 98, N-(4-cyclohexylphenyl)-2-(3,6-dihydro-2H-pyran-4-yl)pyrido[2,3-d]pyrimidin-4-amine], it took 5.53 µM to reach a half-maximal effect (EC50). In other words, the single-digit micromolar range. For `CC(C)N1Cc2c(Nc3ccc(C4CCCCC4)cc3)nc(-c3cncs3)nc2C1=O` [Example 49, 4-[(4-cyclohexylphenyl)amino]-6-(propan-2-yl)-2-(1,3-thiazol-5-yl)-5,6-dihydro-7H-pyrrolo[3,4-d]pyrimidin-7-one] the value was 6.3 µM; for `C[C@@H]1CN(c2nc3c(c(Nc4ccc(-c5ccc(OCCCCCC(F)(F)F)cc5)cc4)n2)COC3)CCO1` [Example 94, 2-[(2R)-2-methylmorpholin-4-yl]-N-{4′-[(6,6,6-trifluorohexyl)oxy][1,1′-biphenyl]-4-yl}-5,7-dihydrofuro[3,4-d]pyrimidin-4-amine], 1.3 µM.

For the compound `CC(C)N1Cc2c(Nc3ccc(C4CCCCC4)cc3)nc(N3CCCOCC3)nc2C1=O` [Example 24, 4-[(4-cyclohexylphenyl)amino]-2-(1,4-oxazepan-4-yl)-6-(propan-2-yl)-5,6-dihydro-7H-pyrrolo[3,4-d]pyrimidin-7-one], a half-maximal response (EC50) required 2.92 µM.

`CC(C)C1CN(c2nc(Nc3ccc(C4CCCCC4)cc3)c3c(n2)C(=O)N(C(C)C)C3)CCO1` (centres unmarked) [Example 18, 4-[(4-cyclohexylphenyl)amino]-6-(propan-2-yl)-2-[2-(propan-2-yl)morpholin-4-yl]-5,6-dihydro-7H-pyrrolo[3,4-d]pyrimidin-7-one] had an EC50 of 1.39 µM. As to `C#CCOc1ccc(-c2ccc(Nc3nc(N4CCOCC4)nc4c3CN(C(C)C)C4=O)cc2)cc1` [Example 71, 2-(morpholin-4-yl)-6-(propan-2-yl)-4-({4′-[(prop-2-yn-1-yl)oxy][1,1′-biphenyl]-4-yl}amino)-5,6-dihydro-7H-pyrrolo[3,4-d]pyrimidin-7-one], the EC50 is 4.13 µM. For `CC(C)N1Cc2c(Nc3ccc(C4CCCCC4)cc3)nc(N3CCOC[C@H]3C(=O)O)nc2C1=O` [Example 38, (3S)-4-{4-[(4-cyclohexylphenyl)amino]-7-oxo-6-(propan-2-yl)-6,7-dihydro-5H-pyrrolo[3,4-d]pyrimidin-2-yl}morpholine-3-carboxylic acid] the value was 9.34 µM. For `CC(C)c1ccc(Nc2nc(N3C[C@@H](C)O[C@@H](C)C3)nc3c2CN(C(C)C)C3=O)cc1` [Example 4, 2-[(2R,6S)-2,6-dimethylmorpholin-4-yl]-6-(propan-2-yl)-4-{[4-(propan-2-yl)phenyl]amino}-5,6-dihydro-7H-pyrrolo[3,4-d]pyrimidin-7-one] the value was 3.76 µM; for `CC(C)c1ccc(Nc2nc(N3CCSC3)nc3c2CN(C(C)C)C3=O)cc1` [Example 3, 6-(propan-2-yl)-4-{[4-(propan-2-yl)phenyl]amino}-2-(1,3-thiazolidin-3-yl)-5,6-dihydro-7H-pyrrolo[3,4-d]pyrimidin-7-one], 3 µM; for `CC(C)N1Cc2c(Nc3ccc(C4CCCCC4)cc3)nc(N(C)CC(F)F)nc2C1=O` [Example 36, 4-[(4-cyclohexylphenyl)amino]-2-[(2,2-difluoroethyl)(methyl)amino]-6-(propan-2-yl)-5,6-dihydro-7H-pyrrolo[3,4-d]pyrimidin-7-one], 6.3 µM.

`CC(C)N1Cc2c(Nc3ccc(C4CCCCC4)cc3)nc(C3=CCOCC3)nc2C1=O` [Example 45, 4-[(4-cyclohexylphenyl)amino]-2-(3,6-dihydro-2H-pyran-4-yl)-6-(propan-2-yl)-5,6-dihydro-7H-pyrrolo[3,4-d]pyrimidin-7-one] displayed an EC50 of 1.15 µM. `CC(C)c1ccc(Nc2nc(N3CCO[C@H](C)C3)nc3c2CN(C(C)C)C3=O)cc1` [Example 7, 2-[(2R)-2-methylmorpholin-4-yl]-6-(propan-2-yl)-4-{[4-(propan-2-yl)phenyl]amino}-5,6-dihydro-7H-pyrrolo[3,4-d]pyrimidin-7-one]: the EC50 is 4.5 µM. This EC50 lies about 3.9-fold higher than the previous one. For `C[C@@H]1CN(c2nc(Nc3ccc(C4CCC4)cc3)c3c(n2)C(=O)N(CCCN(C)C)C3)CCO1` [Example 74, 4-[(4-cyclobulylphenyl)amino]-6-[3-(dimethylamino)propyl]-2-[(2R)-2-methylmorpholin-4-yl]-5,6-dihydro-7H-pyrrolo[3,4-d]pyrimidin-7-one] the value was 3.7 µM.

`CC(C)N1Cc2c(Nc3ccc(C4CCCCC4)cc3)nc(N3CCOCC3CO)nc2C1=O` (centres unmarked) [Example 32, 4-[(4-cyclohexylphenyl)amino]-2-[3-(hydroxymethyl)morpholin-4-yl]-6-(propan-2-yl)-5,6-dihydro-7H-pyrrolo[3,4-d]pyrimidin-7-one] registered an EC50 of 4.89 µM. For `CCCCCCCOc1ccc(-c2ccc(Nc3nc(N4CCOC(C5CC5)C4)nc4c3COC4)cc2)cc1` (centres unmarked) [Example 93] the value was 1.41 µM; for `CC(C)c1ccc(Nc2nc(N3CCOCC3C)nc3c2CN(C(C)C)C3=O)cc1` (centres unmarked) [Example 9, 2-(3-methylmorpholin-4-yl)-6-(propan-2-yl)-4-{[4-(propan-2-yl)phenyl]amino}-5,6-dihydro-7H-pyrrolo[3,4-d]pyrimidin-7-one], 6.14 µM; for `C1=C(c2nc3c(c(Nc4ccc(C5CCC5)cc4)n2)COC3)CCOC1` [Example 91, N-(4-cyclobutylphenyl)-2-(3,6-dihydro-2H-pyran-4-yl)-5,7-dihydrofuro[3,4-d]pyrimidin-4-amine], 9.92 µM.

As for `CC(C)N1Cc2c(Nc3ccc(C4CCCCC4)cc3)nc(N3CCOC(CO)C3)nc2C1=O` (centres unmarked) [Example 31, 4-[(4-cyclohexylphenyl)amino]-2-[2-(hydroxymethyl)morpholin-4-yl]-6-(propan-2-yl)-5,6-dihydro-7H-pyrrolo[3,4-d]pyrimidin-7-one], the EC50 stood at 4.81 µM. Under `CC(C)N1Cc2c(Nc3ccc(CC(F)(F)F)cc3)nc(N3CCO[C@H](C)C3)nc2C1=O` [Example 65, 2-[(2R)-2-methylmorpholin-4-yl]-6-(propan-2-yl)-4-{[4-(2,2,2-trifluoroethyl)phenyl]amino}-5,6-dihydro-7H-pyrrolo[3,4-d]pyrimidin-7-one] stands 7.65 µM; under `COC1CCN(c2nc(Nc3ccc(C4CCCCC4)cc3)c3c(n2)C(=O)N(C(C)C)C3)C1` (centres unmarked) [Example 26, 4-[(4-cyclohexylphenyl)amino]-2-(3-methoxypyrrolidin-1-yl)-6-(propan-2-yl)-5,6-dihydro-7H-pyrrolo[3,4-d]pyrimidin-7-one], 3.5 µM.

The values are drawn from patent publication US12617795B2, “Substituted 6,7-dihydro-5H-pyrrolo[3,4-d]pyrimidines, 5,7-dihydrofuro[3,4-d]pyrimidines, and pyrido[2,3-d]pyrimidines as KCC2 modulators” (Astrazeneca AB, priority 2020, dated 2026).
